#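 Interpolation was linear, between the two tested concentrations surrounding the appropriate level; five concentrations were tested over 48 hours in 96-well plates. Definition used: TGI = concentration required for complete inhibition of growth.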
# Legend:
# Assay in all cases: NCI-60 cell line screen, 48 h
# HOP-62 NSCLC = test system: HOP-62 NSCLC
# IGROV1 ovarian = test system: IGROV1 ovarian
# SN12C renal = test system: SN12C renal
# NCI-H460 lung = test system: NCI-H460 lung
# MCF7 breast = test system: MCF7 breast
# RPMI-8226 leukemia = test system: RPMI-8226 leukemia
# MDA-N = test system: MDA-N
# NCI-H226 lung = test system: NCI-H226 lung
# HCT-116 colon = test system: HCT-116 colon
# TK-10 renal = test system: TK-10 renal
# RXF 393 renal = test system: RXF 393 renal
# NCI/ADR-RES ovarian = test system: NCI/ADR-RES ovarian
# UO-31 renal = test system: UO-31 renal
# HL-60(TB) leukemia = test system: HL-60(TB) leukemia
# OVCAR-3 ovarian = test system: OVCAR-3 ovarian
# KM12 colon = test system: KM12 colon
# SW-620 colon = test system: SW-620 colon
# K-562 leukemia = test system: K-562 leukemia
# HT29 colon = test system: HT29 colon
# MALME-3M melanoma = test system: MALME-3M melanoma
# EKVX NSCLC = test system: EKVX NSCLC
# OVCAR-5 ovarian = test system: OVCAR-5 ovarian
# HCT-15 colon = test system: HCT-15 colon
# SF-268 CNS = test system: SF-268 CNS
# UACC-257 melanoma = test system: UACC-257 melanoma
# SK-MEL-28 melanoma = test system: SK-MEL-28 melanoma
# MDA-MB-435 = test system: MDA-MB-435
# COLO 205 colon = test system: COLO 205 colon
# A549 NSCLC = test system: A549 NSCLC
# A498 renal = test system: A498 renal
# SK-MEL-5 melanoma = test system: SK-MEL-5 melanoma
# SF-295 CNS = test system: SF-295 CNS
# HCC-2998 colon = test system: HCC-2998 colon
# NCI-H522 lung = test system: NCI-H522 lung
# OVCAR-8 ovarian = test system: OVCAR-8 ovarian
# OVCAR-4 ovarian = test system: OVCAR-4 ovarian
# CAKI-1 renal = test system: CAKI-1 renal
# BT-549 breast = test system: BT-549 breast
# CCRF-CEM leukemia = test system: CCRF-CEM leukemia
# PC-3 prostate = test system: PC-3 prostate
# SF-539 CNS = test system: SF-539 CNS
# SR leukemia = test system: SR leukemia
# DU-145 prostate = test system: DU-145 prostate
# U251 CNS = test system: U251 CNS
# MDA-MB-231 breast = test system: MDA-MB-231 breast
# ACHN renal = test system: ACHN renal
# 786-0 renal = test system: 786-0 renal
# SNB-19 CNS = test system: SNB-19 CNS
# LOX IMVI melanoma = test system: LOX IMVI melanoma
# HOP-92 NSCLC = test system: HOP-92 NSCLC
# HS 578T breast = test system: HS 578T breast
# SNB-75 CNS = test system: SNB-75 CNS
# NCI-H23 lung = test system: NCI-H23 lung
# T-47D breast = test system: T-47D breast
# SK-MEL-2 melanoma = test system: SK-MEL-2 melanoma
# UACC-62 melanoma = test system: UACC-62 melanoma
# MOLT-4 leukemia = test system: MOLT-4 leukemia
# SK-OV-3 ovarian = test system: SK-OV-3 ovarian
# M14 melanoma = test system: M14 melanoma
smiles,measurement,setting,value
CC(C)(C)OC(=O)NC(Cc1ccc(OCc2ccccc2)cn1)C(N)=O (configuration not stated),TGI,HOP-62 NSCLC,> 100 µM
same,TGI,IGROV1 ovarian,> 100 µM
same,TGI,SN12C renal,> 100 µM
same,TGI,NCI-H460 lung,> 100 µM
same,TGI,MCF7 breast,> 100 µM
same,TGI,RPMI-8226 leukemia,> 100 µM
same,TGI,MDA-N,> 100 µM
same,TGI,NCI-H226 lung,> 100 µM
same,TGI,HCT-116 colon,> 100 µM
same,TGI,TK-10 renal,> 100 µM
same,TGI,RXF 393 renal,> 100 µM
same,TGI,NCI/ADR-RES ovarian,> 100 µM
same,TGI,UO-31 renal,> 100 µM
same,TGI,HL-60(TB) leukemia,> 100 µM
same,TGI,OVCAR-3 ovarian,> 100 µM
same,TGI,KM12 colon,> 100 µM
same,TGI,SW-620 colon,> 100 µM
same,TGI,K-562 leukemia,> 100 µM
same,TGI,HT29 colon,> 100 µM
same,TGI,MALME-3M melanoma,> 100 µM
same,TGI,EKVX NSCLC,> 100 µM
same,TGI,OVCAR-5 ovarian,> 100 µM
same,TGI,HCT-15 colon,> 100 µM
same,TGI,SF-268 CNS,> 100 µM
same,TGI,UACC-257 melanoma,> 100 µM
same,TGI,SK-MEL-28 melanoma,> 100 µM
same,TGI,MDA-MB-435,> 100 µM
same,TGI,COLO 205 colon,> 100 µM
same,TGI,A549 NSCLC,> 100 µM
same,TGI,A498 renal,> 100 µM
same,TGI,SK-MEL-5 melanoma,94.2 µM
same,TGI,SF-295 CNS,> 100 µM
same,TGI,HCC-2998 colon,> 100 µM
same,TGI,NCI-H522 lung,> 100 µM
same,TGI,OVCAR-8 ovarian,> 100 µM
same,TGI,OVCAR-4 ovarian,> 100 µM
same,TGI,CAKI-1 renal,> 100 µM
same,TGI,BT-549 breast,> 100 µM
same,TGI,CCRF-CEM leukemia,> 100 µM
same,TGI,PC-3 prostate,> 100 µM
same,TGI,SF-539 CNS,> 100 µM
same,TGI,SR leukemia,> 100 µM
same,TGI,DU-145 prostate,> 100 µM
same,TGI,U251 CNS,> 100 µM
same,TGI,MDA-MB-231 breast,> 100 µM
same,TGI,ACHN renal,> 100 µM
same,TGI,786-0 renal,> 100 µM
same,TGI,SNB-19 CNS,> 100 µM
same,TGI,LOX IMVI melanoma,> 100 µM
same,TGI,HOP-92 NSCLC,> 100 µM
same,TGI,HS 578T breast,> 100 µM
same,TGI,SNB-75 CNS,> 100 µM
same,TGI,NCI-H23 lung,> 100 µM
O=C(CSc1nc2ccc(I)cc2c(=O)n1Cc1ccccc1)NN1C(=O)CSC1c1ccccc1 (configuration not stated),TGI,HOP-62 NSCLC,48.5 µM
same,TGI,IGROV1 ovarian,55.6 µM
same,TGI,SN12C renal,56.1 µM
same,TGI,T-47D breast,92.5 µM
same,TGI,NCI-H460 lung,36.3 µM
same,TGI,MCF7 breast,42.1 µM
same,TGI,RPMI-8226 leukemia,> 100 µM
same,TGI,MDA-N,> 100 µM
same,TGI,SK-MEL-2 melanoma,50.8 µM
same,TGI,NCI-H226 lung,> 100 µM
same,TGI,HCT-116 colon,56.1 µM
same,TGI,TK-10 renal,86 µM
same,TGI,RXF 393 renal,57.4 µM
same,TGI,NCI/ADR-RES ovarian,57.2 µM
same,TGI,HL-60(TB) leukemia,58.9 µM
same,TGI,OVCAR-3 ovarian,32.4 µM
same,TGI,KM12 colon,54.9 µM
same,TGI,SW-620 colon,> 100 µM
same,TGI,K-562 leukemia,> 100 µM
same,TGI,UACC-62 melanoma,36.7 µM
same,TGI,HT29 colon,> 100 µM
same,TGI,EKVX NSCLC,86.2 µM
same,TGI,OVCAR-5 ovarian,> 100 µM
same,TGI,MOLT-4 leukemia,> 100 µM
same,TGI,HCT-15 colon,40.5 µM
same,TGI,SF-268 CNS,79.1 µM
same,TGI,UACC-257 melanoma,57.5 µM
same,TGI,SK-MEL-28 melanoma,95.9 µM
same,TGI,MDA-MB-435,69.6 µM
same,TGI,COLO 205 colon,34.6 µM
same,TGI,A549 NSCLC,> 100 µM
same,TGI,SK-MEL-5 melanoma,42.6 µM
same,TGI,SF-295 CNS,76 µM
same,TGI,HCC-2998 colon,53.2 µM
same,TGI,NCI-H522 lung,35.5 µM
same,TGI,OVCAR-8 ovarian,> 100 µM
same,TGI,OVCAR-4 ovarian,76.1 µM
same,TGI,CAKI-1 renal,10.9 µM
same,TGI,CCRF-CEM leukemia,> 100 µM
same,TGI,PC-3 prostate,> 100 µM
same,TGI,SF-539 CNS,70.7 µM
same,TGI,SK-OV-3 ovarian,67.9 µM
same,TGI,SR leukemia,> 100 µM
same,TGI,DU-145 prostate,78.1 µM
same,TGI,M14 melanoma,84.4 µM
same,TGI,U251 CNS,69.5 µM
same,TGI,MDA-MB-231 breast,65.6 µM
same,TGI,ACHN renal,33.1 µM
same,TGI,786-0 renal,> 100 µM
same,TGI,SNB-19 CNS,> 100 µM
same,TGI,LOX IMVI melanoma,39.1 µM
same,TGI,HOP-92 NSCLC,46.9 µM
same,TGI,SNB-75 CNS,> 100 µM
same,TGI,NCI-H23 lung,43.2 µM

# From PubChem BioAssay (NCI)
